Like-named read-outs stand apart in the source and are kept apart here.
What was measured:
[1] = Stability test in human liver microsomes; format: in vitro ADME
Experimental: (§1) 7. Stability Test in Human Liver Microsomes At 37° C., 1 μM of the test compound was incubated with human liver microsomes (0.5 mg/mL) supplemented with NADPH regeneration system for 5, 10, 20, 30 and 60 minutes, and then LC-MS/MS method was used to detect the concentration of the test compound in the generated sample. The half-life (T1/2) and inherent clearance rate (CLint(mic)) of the compound in human liver microsome solution were obtained by calculating at the corresponding time points and the remaining percentage of the compound.

[2] = biological target: T1, GLP-1 receptor (Homo sapiens, UniProt P43220); test: HEK293/CRE-luc/GLP-1R cell luciferase reporter test (agonistic effect on GLP-1 receptor); format: cell-based; details: HEK293/CRE-luc/GLP-1R cells
T1 construct: expressed in transfected cells
Experimental: 1. HEK293/CRE-luc/GLP-1β cell viability
Cell: HEK293/CRE-luc/GLP-1R
Cell culture medium: DMEM+10% FBS+400 μg/ml G418+100 μg/ml Hygromycin B
Frozen stock solution: 90% FBS, 10% (V/V) DMSO
Detection buffer: DMEM+1% FBS
Cells were cultured in DMEM medium+10% FBS+400 μg/ml G418+100 μg/ml Hygromycin B in a CO2 incubator at 37° C., and passaged once every 3-4 days.
Cell plating: Trypsinization adjusted the cell density to 1.67×10^5 cells/mL; 60 μL of cells per well (10000 cells/well) was inoculated in a 384-well plate containing compounds; A NC well (negative control) and a background well (no cells) were set. Incubation was performed for about 18+2 h in the incubator.
Compounds were serially diluted with the detection buffer, and the detection concentration was 0.01 nM-1000 nM.
The cell culture plate was removed and all supernatant was aspirated from the cells. The cells were washed gently 2 times with 1×PBS.
The diluted compound was added to a 384-well plate (10 μL/well), and three replicate wells were set for each concentration. 10 μL of the detection buffer was added to the NC well, sealed and incubated at 37° C. for 6 hours.
The plate was removed, the cells were allowed to equilibrate to room temperature (at least 15 min), and then all supernatant was aspirated from the cells.
Steady-Glo® Reagent was added to the sample well at 10 μL/well and incubated at room temperature for 5 min to lyse the cells.
The test results were read with a BMG microplate reader.
The mean background value was calculated.
The induction factor (Fold of induction, FI)=(induction well value−background value)/(negative control well value −background value) was calculated.
The EC50 value of the sample was calculated using Graphpad Prim 8.0 software using four-parameter fitting analysis.
Mean and standard error (Mean±SEM) were calculated for all results and Graphpad Prism software was used for statistical analysis. Specific data were presented in the form of graphs. P<0.05 was considered to be statistically different.

[3] = biological target: T2, CYP2C19 (Homo sapiens, UniProt P33261); test: Cytochrome P450 isoenzyme inhibition test, human liver microsomes: CYP2C19; format: in vitro ADME; details: human liver microsomes 0.1 mg/mL; read-out: IC50, inhibitory activity on CYP2C19
T2 construct: pre-incubated with the human liver microsome solutions containing 5 enzyme mixed substrates; from tissue; host or cells: human liver microsomes
Experimental: 9. Cytochrome P450 Isoenzyme Inhibition Test Experimental objective: The inhibitory effect of the test compound on the activity of human liver microsomal cytochrome P450 isoenzyme (CYP1A2, CYP2C19, CYP2D6 and CYP3A4) was determined. Experimental operation: The test compound at an incubation concentration of 0, 0.03, 0.1, 0.3, 1, 3, 10, 30 and 100 μM was pre-incubated with the human liver microsome solutions containing 5 enzyme mixed substrates (liver microsome concentration: 0.1 mg/mL) in a water bath at 37° C. for 10 min, respectively, and then a coenzyme factor (NADPH) was added to start the reaction. After incubation in a water bath at 37° C. for 10 min, the reaction was terminated by adding glacial acetonitrile solution containing an internal standard, shaken for 1 min, centrifuged at 4° C. and 10,000 rpm for 10 min, and the supernatant was taken for LC/MS/MS analysis. The amount of metabolites produced by each CYP enzyme substrate was detected. The activity of each CYP isoenzyme was reflected by the production rate of each metabolite. […]

[4] = Evaluation of pharmacokinetics in mice; format: in vivo; details: male, mouse, plasma, oral; C57 mice, intravenous 5 mg/kg and intragastric 20 mg/kg
Experimental: Evaluation of Pharmacokinetics in Mice
Male C57 mice (purchased from Hunan SJA Laboratory Animal Co., Ltd, license number: SCXK (Xiang) 2019-0004), 20-25 g, were fasted overnight. On the day of the experiment, 18 male C57 mice were divided into 2 groups, with 9 mice in each group. The test compound was administered intravenously and intragastrically at doses of 5 mg/kg and 20 mg/kg respectively. Before administration and 5 min, 15 min, 30 min, 1 h, 2 h, 4 h, 6 h, 8 h and 24 h after administration, 0.1 ml of blood was collected from the orbital venous plexus, placed in an EDTAK2 centrifuge tube, and centrifuged at 6000 rpm at 4° C. for 5 min, and then the plasma was collected. The plasma sample was added to an acetonitrile solution containing an internal standard (dexamethasone, 500 ng/mL), vortexed and centrifuged at 10,000 rpm for 10 min, and the supernatant was taken for LC-MS/MS analysis. Pharmacokinetic parameters were calculated using the non-compartmental model in WinNonlin Version 8.0 (Pharsight, Mountain View, CA) pharmacokinetic software.

[5] = Stability test in mouse liver microsomes; format: in vitro ADME
Experimental: as §1, with “3.” for “7.”, “Mouse” for “Human”, “mouse” for “human”

T1 sequence (P43220 24-463): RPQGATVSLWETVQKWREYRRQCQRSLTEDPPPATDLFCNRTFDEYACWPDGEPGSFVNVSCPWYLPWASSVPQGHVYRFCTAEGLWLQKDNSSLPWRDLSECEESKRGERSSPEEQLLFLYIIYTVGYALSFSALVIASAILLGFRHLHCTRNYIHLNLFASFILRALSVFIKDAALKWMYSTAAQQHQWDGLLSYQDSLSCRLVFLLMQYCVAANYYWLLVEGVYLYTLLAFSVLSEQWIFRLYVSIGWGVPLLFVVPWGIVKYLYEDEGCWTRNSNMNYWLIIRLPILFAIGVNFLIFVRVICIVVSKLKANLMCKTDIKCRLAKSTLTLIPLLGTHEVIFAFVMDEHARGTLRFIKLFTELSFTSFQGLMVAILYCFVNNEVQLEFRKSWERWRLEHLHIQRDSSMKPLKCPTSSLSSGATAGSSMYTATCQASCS
T2 sequence (P33261 whole entry): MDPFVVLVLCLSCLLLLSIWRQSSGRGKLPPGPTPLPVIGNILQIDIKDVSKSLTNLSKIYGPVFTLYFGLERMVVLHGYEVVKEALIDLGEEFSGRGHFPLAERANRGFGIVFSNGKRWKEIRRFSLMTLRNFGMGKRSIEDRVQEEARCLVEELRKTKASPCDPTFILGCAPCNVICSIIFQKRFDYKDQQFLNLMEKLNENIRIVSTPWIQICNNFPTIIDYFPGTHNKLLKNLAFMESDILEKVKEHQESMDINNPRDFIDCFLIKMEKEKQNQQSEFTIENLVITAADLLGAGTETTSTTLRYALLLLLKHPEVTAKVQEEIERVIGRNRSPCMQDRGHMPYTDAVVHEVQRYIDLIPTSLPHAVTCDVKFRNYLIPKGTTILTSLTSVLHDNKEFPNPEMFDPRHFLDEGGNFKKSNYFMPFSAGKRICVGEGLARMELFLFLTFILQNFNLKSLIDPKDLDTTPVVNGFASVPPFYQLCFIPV

half-life at 1 μM ([1]; human liver microsomes 0.5 mg/mL, 1 μM compound, NADPH, 37° C.): 9.23 h
microsomal CLint at 1 μM ([1]; human liver microsomes 0.5 mg/mL, 1 μM compound, NADPH, 37° C., read-out: CLint(mic)): 2.5 µL/min/mg
T1/2 ratio of compound 6 to compound DZ-6 ([1]; human liver microsomes test (section 7)): greater than 3
EC50 ([2]; 6 hours incubation, class symbols, read-out: EC50): < 10 nM
EC50 ([2]; bound stated, read-out: EC50 value): < 10 nM
IC50 [3]: > 50000 nM
bioavailability [4]: > 25%
T1/2 ratio of compound 6 to compound DZ-6 ([5]; mouse liver microsomes): greater than 2
half-life at 1 μM ([5]; mouse liver microsomes 0.5 mg/mL, 1 μM compound, NADPH, 37° C.): 4.93 h
microsomal CLint at 1 μM ([5]; mouse liver microsomes 0.5 mg/mL, 1 μM compound, NADPH, 37° C., read-out: CLint(mic)): 4.69 µL/min/mg
Compound: N#Cc1ccc(COc2cccc(-c3ccc(Cc4nc5sc(C(=O)O)cc5n4C[C@@H]4CCO4)c(F)c3)n2)c(F)c1 [Compound 6, (S)-2-(4-(6-((4-cyano-2-fluorobenzyl)oxy)pyridin-2-yl)-2-fluorobenzyl)-1-(oxetan-2-ylmethyl)-1H-thieno[2,3-d]imidazole-5-carboxylic acid]
